Among the data in PubChem BioAssay (NCI) are GI50 and TGI values, retold here.

Test systems include BT-549 breast; HOP-92 NSCLC; KM12 colon; MDA-MB-231 breast; NCI-H23 lung; RXF 393 renal; SF-268 CNS; SF-295 CNS; SN12C renal; U251 CNS.
Common to all, as to experiment: NCI tumour cell line growth inhibition, 48 h

“And” between values parts separate entries of the source, which are not always exact repeats. Identical values can stand only once.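 Five concentrations, 48 hours, 96-well plates. GI50 is the concentration that inhibits growth by half. TGI: total growth inhibition.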

Consider `Cc1n[nH]c(C)c1-c1c(C)n[nH]c1C`, for which the GI50 was 1970 nM with BT-549 breast; 1170 nM in the assay on HOP-92 NSCLC; 1800 nM with KM12 colon; 1830 nM in the assay with MDA-MB-231 breast; 1740 nM with NCI-H23 lung; 1520 nM with RXF 393 renal. The GI50 with SF-268 CNS is 2280 nM; with SF-295 CNS it was 1810 nM; in the assay on SN12C renal, 2210 nM; in the assay with U251 CNS, 1640 nM. Moreover, the TGI with BT-549 breast was 4.26 µM; in the assay with HOP-92 NSCLC, 2.99 µM; with KM12 colon it was 3.97 µM; in the assay with MDA-MB-231 breast it was 4.53 µM; with NCI-H23 lung, 3.47 µM; with RXF 393 renal, 3.07 µM. The TGI in the assay on SF-268 CNS came to 6.91 µM; in the assay on SF-295 CNS, 3.63 µM; with SN12C renal, 5.82 µM; in the assay on U251 CNS, 3.76 µM.
`CS(=O)c1cc(=O)c2ccccc2s1` (configuration not stated): the TGI amounted to 27.6 µM in the assay on BT-549 breast; 6.7 µM in the assay on HOP-92 NSCLC; 28.4 µM in the assay on KM12 colon; 32.8 µM in the assay with MDA-MB-231 breast; 15.4 µM in the assay with NCI-H23 lung; 5.46 µM in the assay with RXF 393 renal. The TGI in the assay with SF-268 CNS worked out at 24.5 µM; with SF-295 CNS, 32.6 µM; with SN12C renal, 13.2 µM; in the assay with U251 CNS it was 22.1 µM.
For `CC[C@@]12CC(C(=O)OC)=C3Nc4ccccc4[C@@]34CCN(C[C@H]3O[C@H]31)[C@@H]24`, the GI50 was 43500 nM in the assay on BT-549 breast; 17700 nM in the assay on HOP-92 NSCLC; 41300 nM in the assay on KM12 colon; 47600 nM with MDA-MB-231 breast; 60700 nM in the assay on NCI-H23 lung; 26400 nM in the assay with RXF 393 renal. Also, the GI50 was greater than 100000 nM in the assay with SF-268 CNS, 36700 nM in the assay with SF-295 CNS, greater than 100000 nM in the assay on SN12C renal and 43000 nM with U251 CNS. Besides, the TGI in the assay on BT-549 breast, in the assay with HOP-92 NSCLC, with KM12 colon, in the assay on MDA-MB-231 breast, in the assay with NCI-H23 lung and with RXF 393 renal was greater than 100 µM throughout. The TGI with SF-268 CNS, in the assay on SF-295 CNS, with SN12C renal and with U251 CNS was greater than 100 µM in each case.
Regarding `CN(C)CCCn1c2c(c3ccc(N4CCNCC4)cc3c1=O)C(=O)c1ccccc1-2`, the GI50 is 1270 nM with BT-549 breast; 1720 nM in the assay with HOP-92 NSCLC; 1130 nM with KM12 colon; 505 nM in the assay on MDA-MB-231 breast; 1050 nM in the assay with NCI-H23 lung; 1290 nM in the assay with RXF 393 renal. The GI50 in the assay with SF-268 CNS is 950 nM; with SF-295 CNS it was 1160 nM; in the assay on SN12C renal it was 329 nM; with U251 CNS it was 639 nM. In addition, the TGI in the assay with BT-549 breast stood at 2.77 µM; in the assay on HOP-92 NSCLC, 6.53 µM; in the assay on KM12 colon it was 3.07 µM; with MDA-MB-231 breast, 2.05 µM; in the assay on NCI-H23 lung it was 2.64 µM; with RXF 393 renal, 2.9 µM. In addition, the TGI with SF-268 CNS stood at 2.72 µM; in the assay with SF-295 CNS, 3.36 µM; in the assay with SN12C renal, 1.79 µM; in the assay with U251 CNS it was 2.31 µM.
As to `COc1cc(F)c(F)c(F)c1C(=O)c1cnc(NC2CCN(S(C)(=O)=O)CC2)nc1N`, the GI50 in the assay on BT-549 breast is 3230 nM; with HOP-92 NSCLC, 410 nM; in the assay on KM12 colon, 958 nM; with MDA-MB-231 breast, 1260 nM; in the assay on NCI-H23 lung, 1240 nM; in the assay with RXF 393 renal, 534 nM. Further, the GI50 was 2780 nM in the assay with SF-268 CNS, 1580 nM with SF-295 CNS, 1960 nM in the assay on SN12C renal and 780 nM with U251 CNS. In addition, the TGI with BT-549 breast is 8.35 µM; with HOP-92 NSCLC, 7.11 µM; in the assay on KM12 colon, greater than 14.4 µM; in the assay with MDA-MB-231 breast, 16 µM; in the assay on NCI-H23 lung, 14.8 µM; in the assay with RXF 393 renal, 1.98 µM. Moreover, the TGI was greater than 18.9 µM in the assay with SF-268 CNS, greater than 9.45 µM in the assay on SF-295 CNS, greater than 25 µM with SN12C renal and greater than 25 µM in the assay with U251 CNS.
In the case of `NC1=Nc2cc(OCCCCN3Cc4ccccc4C3)c(OCC3CC3)cc2C12CCCC2`, the GI50 is 1570 nM with BT-549 breast; 873 nM with HOP-92 NSCLC; 1720 nM in the assay on KM12 colon; 1550 nM in the assay with MDA-MB-231 breast; 2150 nM in the assay with NCI-H23 lung; 1220 nM with RXF 393 renal. Further, the GI50 is 1780 nM in the assay with SF-268 CNS, 1940 nM in the assay on SF-295 CNS, 1700 nM with SN12C renal and 1530 nM with U251 CNS. Besides, the TGI in the assay with BT-549 breast came out at 3.33 µM; in the assay on HOP-92 NSCLC it was 2.71 µM; in the assay with KM12 colon, 3.39 µM; in the assay on MDA-MB-231 breast, 3.02 µM; in the assay with NCI-H23 lung, 5.36 µM; with RXF 393 renal it was 2.6 µM. The TGI is 6.42 µM in the assay with SF-268 CNS, 3.83 µM in the assay with SF-295 CNS, 3.41 µM in the assay with SN12C renal and 3.11 µM with U251 CNS.
Consider `N#CCC1CCN(c2nc(Nc3ccc(N4CCC(O)CC4)cc3)c3c(=O)[nH]ncc3n2)CC1`, for which the GI50 was 1280 nM with BT-549 breast; 239 nM in the assay on HOP-92 NSCLC; 38 nM in the assay with KM12 colon; 1170 nM in the assay on MDA-MB-231 breast; 732 nM in the assay on NCI-H23 lung; 303 nM in the assay on RXF 393 renal. The GI50 in the assay with SF-268 CNS is 1200 nM; with SF-295 CNS, 1440 nM; in the assay with SN12C renal it was 391 nM; with U251 CNS it was 1030 nM. Further, the TGI was greater than 100 µM in the assay with BT-549 breast; greater than 100 µM in the assay on HOP-92 NSCLC; greater than 100 µM in the assay with KM12 colon; greater than 100 µM in the assay on MDA-MB-231 breast; greater than 100 µM in the assay with NCI-H23 lung; 1.3 µM in the assay on RXF 393 renal. The TGI with SF-268 CNS, with SF-295 CNS, with SN12C renal and with U251 CNS was greater than 100 µM throughout.
With `O=C(/C=C/c1ccccc1)c1ccccn1`, the TGI with BT-549 breast was 37.4 µM and 52.4 µM; in the assay on HOP-92 NSCLC, 53 µM; in the assay on KM12 colon, 34.2 µM and 28.5 µM; with MDA-MB-231 breast it was 30.7 µM and > 100 µM; with NCI-H23 lung, 33.3 µM and 35.5 µM; in the assay with RXF 393 renal it was 37.4 µM and 36.5 µM. The TGI was 49.8 µM and 43.9 µM in the assay with SF-268 CNS; 33.9 µM and 59.9 µM in the assay with SF-295 CNS; 27.3 µM and 31.8 µM in the assay on SN12C renal; 30.5 µM and 35.9 µM in the assay on U251 CNS. Besides, the GI50 in the assay with MDA-MB-231 breast was 15600 nM and 35800 nM; with SF-268 CNS, 18800 nM and 2660 nM.
